Assay results: ChEMBL document CHEMBL1128795, “N-(Quinuclidin-3-yl)-2-(1-methyl-1H-indol-3-yl)-2-oxo-acetamide: a high affinity 5-HT3 receptor partial agonist” (Bioorg Med Chem Lett, 1995)
pKi: −log10 of the molar value.

Columns and labels:
[1] = molecular target: T1, Alpha-2A adrenergic receptor (Homo sapiens, UniProt P08913); test: Binding affinity against Alpha-2A adrenergic receptor
T1 sequence (P08913 whole entry): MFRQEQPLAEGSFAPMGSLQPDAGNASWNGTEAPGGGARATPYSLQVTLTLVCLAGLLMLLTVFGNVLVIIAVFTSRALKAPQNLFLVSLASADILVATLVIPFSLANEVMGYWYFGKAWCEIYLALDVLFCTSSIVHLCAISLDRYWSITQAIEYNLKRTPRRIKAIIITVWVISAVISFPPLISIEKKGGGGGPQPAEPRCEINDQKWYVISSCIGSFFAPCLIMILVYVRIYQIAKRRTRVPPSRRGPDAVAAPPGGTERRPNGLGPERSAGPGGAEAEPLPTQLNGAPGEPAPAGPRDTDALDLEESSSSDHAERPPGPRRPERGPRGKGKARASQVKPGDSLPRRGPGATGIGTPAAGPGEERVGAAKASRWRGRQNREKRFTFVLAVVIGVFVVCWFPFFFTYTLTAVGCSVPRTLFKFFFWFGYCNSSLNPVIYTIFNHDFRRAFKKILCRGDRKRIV

[2] = molecular target: T2, Muscarinic acetylcholine receptor M1 (Homo sapiens, UniProt P11229); test: Binding affinity against Muscarinic M1 receptor
T2 sequence (P11229 whole entry): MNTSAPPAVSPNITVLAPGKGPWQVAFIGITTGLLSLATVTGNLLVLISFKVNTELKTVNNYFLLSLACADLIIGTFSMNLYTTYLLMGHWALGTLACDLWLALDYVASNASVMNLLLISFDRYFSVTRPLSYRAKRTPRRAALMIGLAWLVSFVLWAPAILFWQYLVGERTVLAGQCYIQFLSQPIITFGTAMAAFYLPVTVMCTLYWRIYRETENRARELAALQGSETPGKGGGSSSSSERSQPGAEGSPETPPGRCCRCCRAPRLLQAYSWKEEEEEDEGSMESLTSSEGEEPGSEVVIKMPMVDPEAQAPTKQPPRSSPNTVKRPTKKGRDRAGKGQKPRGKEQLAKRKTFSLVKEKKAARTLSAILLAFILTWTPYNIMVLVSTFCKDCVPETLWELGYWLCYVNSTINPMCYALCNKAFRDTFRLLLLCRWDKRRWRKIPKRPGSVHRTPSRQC

[3] = molecular target: Beta-1 adrenergic receptor (Homo sapiens, UniProt P08588); test: Binding affinity against Beta-1 adrenergic receptor
Chain of Beta-1 adrenergic receptor (P08588 whole entry): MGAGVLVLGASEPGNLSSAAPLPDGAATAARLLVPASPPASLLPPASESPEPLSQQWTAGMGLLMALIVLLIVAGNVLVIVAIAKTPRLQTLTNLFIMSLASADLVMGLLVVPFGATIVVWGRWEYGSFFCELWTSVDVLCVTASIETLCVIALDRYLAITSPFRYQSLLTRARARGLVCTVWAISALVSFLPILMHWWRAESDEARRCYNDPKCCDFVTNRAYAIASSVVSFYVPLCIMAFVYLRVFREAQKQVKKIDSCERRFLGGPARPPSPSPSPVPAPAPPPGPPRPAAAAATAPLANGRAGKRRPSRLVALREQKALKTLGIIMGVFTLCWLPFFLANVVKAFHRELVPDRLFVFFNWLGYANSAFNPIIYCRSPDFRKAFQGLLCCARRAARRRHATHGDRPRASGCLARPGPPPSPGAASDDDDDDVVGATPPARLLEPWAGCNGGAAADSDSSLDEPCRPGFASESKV

[4] = molecular target: 5-hydroxytryptamine receptor 1D (Homo sapiens, UniProt P28221); test: Binding affinity against 5-Hydroxytryptamine 1D receptor
Chain of 5-hydroxytryptamine receptor 1D (P28221 whole entry): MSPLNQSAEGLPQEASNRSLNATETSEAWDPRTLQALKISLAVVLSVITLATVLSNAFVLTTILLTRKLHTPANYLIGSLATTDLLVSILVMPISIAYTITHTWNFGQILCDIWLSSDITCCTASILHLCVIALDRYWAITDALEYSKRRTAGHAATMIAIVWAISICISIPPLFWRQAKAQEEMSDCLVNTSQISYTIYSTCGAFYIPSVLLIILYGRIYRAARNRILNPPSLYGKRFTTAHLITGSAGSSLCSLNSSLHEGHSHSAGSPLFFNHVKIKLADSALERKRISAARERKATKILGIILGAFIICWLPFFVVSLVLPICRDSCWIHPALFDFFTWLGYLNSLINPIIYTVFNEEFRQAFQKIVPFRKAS

[5] = molecular target: Muscarinic acetylcholine receptor M3 (Homo sapiens, UniProt P20309); test: Binding affinity against Muscarinic M3 receptor
Chain of Muscarinic acetylcholine receptor M3 (P20309 whole entry): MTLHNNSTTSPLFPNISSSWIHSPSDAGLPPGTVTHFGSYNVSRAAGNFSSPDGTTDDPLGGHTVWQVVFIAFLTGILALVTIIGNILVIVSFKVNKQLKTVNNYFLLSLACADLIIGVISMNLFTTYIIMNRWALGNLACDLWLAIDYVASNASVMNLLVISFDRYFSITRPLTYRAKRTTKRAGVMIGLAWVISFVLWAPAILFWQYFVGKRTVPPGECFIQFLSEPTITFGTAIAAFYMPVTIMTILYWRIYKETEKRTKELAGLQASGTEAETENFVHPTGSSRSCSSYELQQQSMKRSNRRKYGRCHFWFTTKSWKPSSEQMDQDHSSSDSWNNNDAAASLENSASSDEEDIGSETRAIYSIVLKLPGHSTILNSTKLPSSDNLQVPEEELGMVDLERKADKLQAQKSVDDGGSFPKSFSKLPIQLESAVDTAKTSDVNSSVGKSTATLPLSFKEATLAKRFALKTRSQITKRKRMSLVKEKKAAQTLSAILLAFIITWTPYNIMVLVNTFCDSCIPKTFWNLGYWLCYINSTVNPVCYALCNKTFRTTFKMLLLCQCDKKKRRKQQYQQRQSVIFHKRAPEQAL

[6] = molecular target: T3, Alpha-2B adrenergic receptor (Homo sapiens, UniProt P18089); test: Binding affinity against Alpha-2B adrenergic receptor
T3 sequence (P18089 whole entry): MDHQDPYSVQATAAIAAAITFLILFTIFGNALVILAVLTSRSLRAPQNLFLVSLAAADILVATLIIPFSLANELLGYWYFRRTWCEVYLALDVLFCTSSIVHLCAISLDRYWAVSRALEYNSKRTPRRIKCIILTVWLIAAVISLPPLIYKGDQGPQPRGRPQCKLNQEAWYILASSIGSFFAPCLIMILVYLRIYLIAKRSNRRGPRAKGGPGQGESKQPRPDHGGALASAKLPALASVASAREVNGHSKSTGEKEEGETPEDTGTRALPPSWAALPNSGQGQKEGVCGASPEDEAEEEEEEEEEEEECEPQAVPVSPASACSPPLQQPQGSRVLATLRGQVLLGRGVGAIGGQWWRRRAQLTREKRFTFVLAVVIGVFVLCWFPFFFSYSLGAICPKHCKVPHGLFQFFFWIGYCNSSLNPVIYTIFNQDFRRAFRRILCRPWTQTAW

[7] = molecular target: 5-hydroxytryptamine receptor 4 (Homo sapiens, UniProt Q13639); test: Binding affinity against 5-Hydroxytryptamine 4 receptor
Chain of 5-hydroxytryptamine receptor 4 (Q13639 whole entry): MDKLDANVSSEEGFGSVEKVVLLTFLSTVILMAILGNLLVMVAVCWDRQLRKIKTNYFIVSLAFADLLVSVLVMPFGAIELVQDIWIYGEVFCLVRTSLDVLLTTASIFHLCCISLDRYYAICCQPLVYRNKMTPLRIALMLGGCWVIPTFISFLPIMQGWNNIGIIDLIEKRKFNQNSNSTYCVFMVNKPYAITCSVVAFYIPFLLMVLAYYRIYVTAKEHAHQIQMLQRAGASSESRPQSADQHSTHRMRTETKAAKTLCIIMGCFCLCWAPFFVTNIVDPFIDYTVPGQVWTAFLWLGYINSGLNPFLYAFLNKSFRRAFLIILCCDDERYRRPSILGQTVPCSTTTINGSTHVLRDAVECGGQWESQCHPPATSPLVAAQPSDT

[8] = molecular target: Beta-2 adrenergic receptor (Homo sapiens, UniProt P07550); test: Binding affinity against Beta-2 adrenergic receptor
Chain of Beta-2 adrenergic receptor (P07550 whole entry): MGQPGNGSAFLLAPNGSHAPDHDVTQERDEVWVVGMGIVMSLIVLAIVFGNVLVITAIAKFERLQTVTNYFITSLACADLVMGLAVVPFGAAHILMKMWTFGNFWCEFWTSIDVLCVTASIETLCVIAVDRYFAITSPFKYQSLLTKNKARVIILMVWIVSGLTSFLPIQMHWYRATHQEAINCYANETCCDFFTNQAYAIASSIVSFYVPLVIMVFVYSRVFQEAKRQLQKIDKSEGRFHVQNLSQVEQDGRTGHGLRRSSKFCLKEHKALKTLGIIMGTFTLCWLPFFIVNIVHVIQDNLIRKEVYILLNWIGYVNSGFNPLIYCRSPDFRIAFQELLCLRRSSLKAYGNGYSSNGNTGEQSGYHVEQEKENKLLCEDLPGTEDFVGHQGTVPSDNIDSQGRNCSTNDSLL

[9] = molecular target: D(1A) dopamine receptor (Homo sapiens, UniProt P21728); test: Binding affinity against Dopamine D1 receptor
Chain of D(1A) dopamine receptor (P21728 whole entry): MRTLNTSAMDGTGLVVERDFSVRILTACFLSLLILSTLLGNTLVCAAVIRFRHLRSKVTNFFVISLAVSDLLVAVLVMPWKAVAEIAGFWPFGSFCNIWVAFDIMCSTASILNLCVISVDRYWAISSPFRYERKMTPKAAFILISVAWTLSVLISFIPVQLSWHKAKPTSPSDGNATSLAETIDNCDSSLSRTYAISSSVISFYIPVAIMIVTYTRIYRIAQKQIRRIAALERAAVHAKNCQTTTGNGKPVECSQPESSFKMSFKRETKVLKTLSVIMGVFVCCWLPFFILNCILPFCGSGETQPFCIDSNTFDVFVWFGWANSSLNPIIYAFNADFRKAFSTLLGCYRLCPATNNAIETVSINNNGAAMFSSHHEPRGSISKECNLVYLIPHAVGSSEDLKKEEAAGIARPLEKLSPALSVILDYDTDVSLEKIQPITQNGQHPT

[10] = molecular target: 5-hydroxytryptamine receptor 2A (Homo sapiens, UniProt P28223); test: Binding affinity against 5-Hydroxytryptamine 2A receptor
Chain of 5-hydroxytryptamine receptor 2A (P28223 whole entry): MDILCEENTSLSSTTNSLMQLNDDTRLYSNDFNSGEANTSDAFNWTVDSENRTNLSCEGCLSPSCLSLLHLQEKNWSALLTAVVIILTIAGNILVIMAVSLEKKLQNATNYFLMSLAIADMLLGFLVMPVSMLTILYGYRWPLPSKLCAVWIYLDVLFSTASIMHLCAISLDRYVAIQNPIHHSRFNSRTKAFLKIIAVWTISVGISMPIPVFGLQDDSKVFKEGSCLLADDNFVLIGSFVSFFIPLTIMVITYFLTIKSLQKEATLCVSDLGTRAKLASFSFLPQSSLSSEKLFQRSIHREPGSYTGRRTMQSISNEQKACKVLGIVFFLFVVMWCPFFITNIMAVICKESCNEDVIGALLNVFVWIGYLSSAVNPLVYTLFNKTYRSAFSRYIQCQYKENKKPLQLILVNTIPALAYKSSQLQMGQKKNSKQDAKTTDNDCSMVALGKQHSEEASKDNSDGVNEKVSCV

[11] = molecular target: T4, Alpha-1B adrenergic receptor (Homo sapiens, UniProt P35368); test: Binding affinity against Adrenogenic Alpha-1B receptor
T4 sequence (P35368 whole entry): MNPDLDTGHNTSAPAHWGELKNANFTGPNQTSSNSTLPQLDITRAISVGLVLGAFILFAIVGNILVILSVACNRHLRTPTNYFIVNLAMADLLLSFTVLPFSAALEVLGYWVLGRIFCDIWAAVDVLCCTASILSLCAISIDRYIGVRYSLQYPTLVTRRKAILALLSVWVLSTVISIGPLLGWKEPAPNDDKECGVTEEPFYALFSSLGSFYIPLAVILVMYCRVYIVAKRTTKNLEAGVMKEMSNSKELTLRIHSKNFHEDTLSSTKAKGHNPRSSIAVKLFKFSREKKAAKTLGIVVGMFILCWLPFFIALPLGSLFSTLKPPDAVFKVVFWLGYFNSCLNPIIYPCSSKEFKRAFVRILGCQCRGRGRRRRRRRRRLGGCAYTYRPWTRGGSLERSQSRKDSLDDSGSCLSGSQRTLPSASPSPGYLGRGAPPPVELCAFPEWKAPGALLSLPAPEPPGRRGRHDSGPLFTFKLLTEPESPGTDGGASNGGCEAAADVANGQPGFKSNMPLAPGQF

[12] = molecular target: D(2) dopamine receptor (Homo sapiens, UniProt P14416); test: Binding affinity against Dopamine D2 receptor
Chain of D(2) dopamine receptor (P14416 whole entry): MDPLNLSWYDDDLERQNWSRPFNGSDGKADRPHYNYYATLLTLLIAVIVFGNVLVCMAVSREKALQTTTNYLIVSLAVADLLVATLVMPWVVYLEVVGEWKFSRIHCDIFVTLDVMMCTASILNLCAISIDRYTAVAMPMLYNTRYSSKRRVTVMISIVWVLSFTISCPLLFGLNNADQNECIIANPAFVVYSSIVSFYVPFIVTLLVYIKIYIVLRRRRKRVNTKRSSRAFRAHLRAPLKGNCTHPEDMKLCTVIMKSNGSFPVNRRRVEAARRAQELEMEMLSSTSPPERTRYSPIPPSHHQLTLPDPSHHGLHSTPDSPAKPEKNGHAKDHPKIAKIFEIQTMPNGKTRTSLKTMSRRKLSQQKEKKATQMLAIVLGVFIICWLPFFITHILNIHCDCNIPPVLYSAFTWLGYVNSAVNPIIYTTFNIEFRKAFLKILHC

[13] = molecular target: Serotonin 3 (5-HT3) receptor (Rattus norvegicus) (UniProt P35563+Q9JJ16); test: Tested for % decrease in heart rate relative to pre-dose control against 2-methyl-5-HT induced bradycardia (von Bezold-Jarisch (B-J) reflex) in anesthetized rats; format: functional; design: scale not given: the % may be the effect or the level left
[14] = molecular target: T5, Muscarinic acetylcholine receptor M4 (Homo sapiens, UniProt P08173); test: Binding affinity against Muscarinic acetylcholine receptor M4
T5 sequence (P08173 whole entry): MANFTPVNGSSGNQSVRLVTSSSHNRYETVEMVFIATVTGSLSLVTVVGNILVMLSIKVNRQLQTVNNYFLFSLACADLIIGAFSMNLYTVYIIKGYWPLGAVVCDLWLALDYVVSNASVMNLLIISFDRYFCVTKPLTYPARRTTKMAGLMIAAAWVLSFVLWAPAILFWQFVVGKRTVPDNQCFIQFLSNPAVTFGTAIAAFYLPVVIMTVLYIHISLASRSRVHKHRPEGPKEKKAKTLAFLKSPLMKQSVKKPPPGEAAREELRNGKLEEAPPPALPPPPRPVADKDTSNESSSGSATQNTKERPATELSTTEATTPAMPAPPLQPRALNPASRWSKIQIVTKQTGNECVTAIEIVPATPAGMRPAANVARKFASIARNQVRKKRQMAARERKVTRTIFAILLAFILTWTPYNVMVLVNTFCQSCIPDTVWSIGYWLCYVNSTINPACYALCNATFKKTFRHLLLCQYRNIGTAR

[15] = organism: Rattus norvegicus; test: Tested for maximum response in depolarization of isolated rat vagus nerve measured at dose 1 uM; format: functional

Compound | pKi [1] | pKi [2] | pKi [3] | pKi [4] | pKi [5] | pKi [6] | pKi [7] | pKi [8] | pKi [9] | pKi [10] | pKi [11] | pKi [12] | Control [13] [%] | pKi [14] | Max response [15] [uV]
Cn1cc(C(=O)C(=O)N[C@@H]2CN3CCC2CC3)c2ccccc21 | 4.50 | 4.60 | < 4.00 | < 4.00 | 4.50 | 4.60 | 6.40 | < 4.00 | < 4.00 | 4.60 | 4.80 | < 4.00 | 33 | – | –
Cn1cc(C(=O)C(=O)N[C@H]2CN3CCC2CC3)c2ccccc21 | 5.10 | 5.00 | < 5.00 | 4.40 | 4.30 | 5.50 | – | < 5.00 | < 4.00 | 4.90 | < 5.00 | < 4.00 | 24 | 4.60 | 140
